# Source: US20090104119A1, “Dendrimer Based Compositions And Methods Of Using The Same” (priority 2004, published 2009)
# Assays:
# [1] = system: KB cells which express a high cell surface FA receptor (FAR); test: Cellular uptake/binding of dendrimers in high-FAR KB cells, flow cytometry; type: cell-based, human
# Protocol: (§1) Cell culture and treatment.
# (§2) Flow Cytometry and Confocal Microscopy. The standard fluorescence of the dendrimer solutions was quantified using a Beckman spectrofluorimeter. For flow cytometric analysis of the uptake of the targeted polymer, cells were trypsinized and suspended in PBS containing 0.1% bovine serum albumin (PBSB) and analyzed using a Becton Dickinson FACScan analyzer. The FL1-fluorescence of 10,000 cells was measured and the mean fluorescence of gated viable cells was quantified. Confocal microscopic analysis was performed in cells plated on a glass cover-slip, using a Carl Ziess confocal microscope. Fluorescence and differential interference contrast (DIC) images were collected simultaneously using an argon laser, using the appropriate filters for FITC.
# The cellular uptake of the dendrimers was measured in KB cells which express a high cell surface FA receptor (FAR). The FA-conjugated dendrimers bound to the cells in a dose-dependent fashion, with 50% binding at 10-15 nM for both the G5-FITC-FA and G5-FITC-FA-MTX, while the control dendrimer G5-FITC was not detected in the KB cells (See, e.g., FIG. 18A). Identical binding curves were obtained for the G5-FITC-FA and G5-FITC-FA-MTX when the fluorescence obtained was normalized for the quenching observed in the standard solutions of the dendrimers (See e.g., FIG. 18B).
# (§3) The effect of free FA on the uptake of the dendrimers was tested in KB cells that express both high and low FAR. The binding of the conjugates to the low FAR-expressing KB cells was 30% of that of the high FAR-expressing cells for both the G5-FITC-FA and G5-FITC-FA-MTX (See, for e.g., FIG. 19, left panel). […] The binding and internalization of the dendrimers to KB cells was assessed by confocal microscopy. KB cells were incubated with 250 nM of the indicated dendrimers for 24 hours and confocal images were taken. Conjugates containing the targeting molecule FA internalized into KB cells within 24 h (See, e.g., FIG. 20).
# KB cells [2] = test: Inhibition of cell growth by XTT assay; type: cell-based, human; conditions: for inhibition of cell growth, XTT: 1, 2 or 3 days
# Protocol: as §1
# Evaluation of dendrimer cytotoxicity.
# Because the binding of the conjugate to KB cells reaches maximal uptake within 1 h (Quintana et al, 2002. Pharmaceutical Research 19: 1310-1316.), the effect of the G5-FI-FA-MTX on cell growth was initially tested by pre-incubation of cells with the conjugate for 1 h, followed by incubation in a drug-free medium for 5 d. […] When the cells were pre-incubated with dendrimers for 4 h, there was a modest decrease of about 10% in cell growth as determined by XTT assay. The cytotoxicity measurements were therefore done by incubation with the dendrimer for a minimum of 24 h, a pre-incubation time period shown to induce significant cytotoxicity.
# The inhibition of cell growth induced by the conjugates was also tested by XTT assay which is based on the conversion of XTT to formazan by the active mitochondria of live cells (See, e.g., Roehm et al, J Immunol Methods 142, 257 (1991)).
# As free FA blocks the uptake of the dendrimers as well as rescues cells from MTX-induced cytotoxicity, the effect of pre-incubation of cells with excess FA on the anti-proliferative effect of G5-FITC-FA-MTX was tested. KB cells were exposed to different concentrations of the conjugate or free MTX for 24 h in the absence or presence of 50 μM FA. The incubation medium was removed, the cells were rinsed and incubated with fresh medium for 5 additional days in the absence of the drugs, and the XTT assay was performed (See, e.g., FIG. 24, □, ▪, represents cells treated with MTX; Δ, ▴, represents cells treated with G5-FITC-FA-MTX).
# The anti-proliferative effect of the MTX-conjugates was compared to conjugates that lacked either the FA or the FITC molecule. KB cells were incubated with 30 nM of the conjugates (=150 nM effective MTX concentration) for 24 h and the incubation medium was removed. The cells were rinsed and incubated for an additional 5 d in fresh medium in the absence of the drugs, and the XTT assay was performed.
# [3] = mouse, in vivo
# Excerpt: Recipient animal and tumor model. Immunodeficient, 6- to 8-weekold athymic nude female mice [Sim:(NCr) nu/nu fisol] were purchased from Simonsen Laboratories, Inc. (Gilroy, Calif.). Five- to 6-week-old Fox Chase severe combined immunodeficient (SCID; CB-17/lcrCrl-scidBR) female mice were purchased from the Charles River Laboratories (Wilmington, Mass.) and housed in a specific pathogen-free animal facility at the University of Michigan Medical Center in accordance with the regulations of the University's Committee on the Use and Care of Animals as well as with federal guidelines, including the Principles of Laboratory Animal Care. Animals were fed ad libitum with Laboratory Autoclavable Rodent Diet 5010 (PMI Nutrition International, St. Louis, Mo.). Three weeks before tumor cell injection, the food was changed to a folate-deficient diet (TestDiet, Richmond, Ind.). For urine and feces collection, animals were housed in metabolic rodent cages (Nalgene, Rochester, N.Y.).
# Tumor cell line. The KB human cell line, which overexpresses the folate receptor (See, e.g., Turek et al, J Cell Sci 106, 423 (1993)), was purchased from the American Type Tissue Collection (Manassas, Va.) and maintained in vitro at 37° C., 5% CO2 in folate-deficient RPMI 1640 supplemented with penicillin (100 units/mL), streptomycin (100 μg/mL), and 10% heat-inactivated fetal bovine serum. Before injection in the mice, the cells were harvested with trypsin-EDTA solution, washed, and resuspended in PBS. The cell suspension (5×10^6 cells in 0.2 mL) was injected s.c. into one flank of each mouse using a 30-gauge needle. In the biodistribution studies, the tumors were allowed to grow for 2 weeks until reaching ˜0.9 cm^3 in volume. The formula chosen to compute tumor volume was for a standard volume of an ellipsoid, where V= 4/3π (½ length×½ width×½ depth). With an assumption that width equals depth and […], the formula used was V=½×length×width^2. Targeted drug delivery using conjugate injections was started on the fourth day after implantation of the KB cells.
# Biodistribution and excretion of tritiated dendrimer. […] Both tritiumlabeled conjugates were delivered at equimolar concentrations of the modified dendrimer. At 5 minutes, 2 hours, 1 day, 4 days, and 7 days postinjection, the animals were euthanized and samples of tumor, heart, lung, liver, spleen, pancreas, kidney, and brain were taken. […] The mice were euthanized at 5 minutes, 1 day, and 4 days following injection, and tissues were harvested as above. Blood was collected at each time point via cardiac puncture. Each group included three to five mice. Urine and feces samples were collected at 2, 4, 8 and 12 hours and 1, 2, 3, and 4 days.
# Radioactive tissue samples were prepared as described in Nigavekar et al, Pharm Res 21, 476 (2004). The tritium content was measured in a liquid scintillation counter (LS 6500, Beckman Coulter, Fullerton, Calif.). The values of measured radioactivity were adjusted for the counting efficiency of the instrument and used to derive radioactivity (1 μCi=2.22×10^6 dpm) per sample. These values were then normalized by tissue weight and the specific radioactivity of the conjugates was reported as a percentage of the injected dosage (% ID/g). The excreted radioactivity (dendrimer) via urine and feces was reported as a percentage of the injected dosage (% ID).
# Biodistribution of tritiated dendrimers. […] The mice were maintained on a folate-deficient diet for the duration of the experiment to minimize the circulating levels of folic acid (See, e.g., Mathias et al., J Nucl Med 29, 1579 (1998)). […] Mice were evaluated at various time points (5 minutes to 7 days) following i.v. administration of the conjugates.
# s.c. human KB xenografts = test: Targeted drug delivery, tumor growth and survival in SCID mice with KB xenografts; type: in vivo, SCID CB-17 mice; conditions: first trial, up to 15 injections; cumulative 5.0 mg/kg methotrexate equivalents or equimolar dendrimer
# Protocol: Recipient animal and tumor model.
# Delivery of targeted nanoparticle therapeutic. Twice weekly, SCID mice with s.c. KB xenografts, starting on day 4 after tumor implantation, received via the tail vein an injection of either targeted or nontargeted conjugate containing methotrexate, a conjugate without methotrexate, free methotrexate, or saline as a control. The compounds were delivered in a 0.2 mL volume of saline per 20 g of mouse. The single dose of methotrexate delivered each time equaled 0.33 mg/kg. The higher doses of 1.67 and 3.33 mg/kg free methotrexate were also tested. The conjugates were delivered at equimolar concentration of methotrexate calculated based on the number of methotrexate molecules present in a nanoparticle. The conjugate without methotrexate was delivered at equimolar concentration of dendrimer. In the initial trial, six groups of mice with five mice in each group received up to 15 injections. In the follow-up trial, mice received up to 28 injections dependent on their survival. The body weights of the mice were monitored throughout the experiment as an indication of adverse effects of the drug. Histopathology of multiple organs was done at the termination of each trial and each time mouse had to be euthanized due to toxic effects or tumor burden. Tissues from lung, heart, liver, pancreas, spleen, kidney, and tumor were analyzed. Additionally, cells were isolated from tumors, stained with targeted fluorescein-labeled conjugate, and tested for the presence of folic acid receptors using flow cytometer.
# Targeted drug delivery to tumor cells through the folate receptor. The efficacy of different doses of conjugates was tested on SCID CB-17 mice bearing s.c. human KB xenografts and was compared with equivalent and higher doses of free methotrexate. Mice were maintained on the folic acid-deficient diet for 3 weeks before injection of the KB tumor cells to achieve circulating levels of folic acid that approach those in human serum and to prevent down-regulation of folate receptors on tumor xenografts (See, Mathias et al., J Nucl Med 29, 1579 (1998)). Six groups of SCID mice with five mice in each group were injected s.c. on one flank with 5×10^6 KB cells in 0.2 mL PBS suspension. The highest total dose of G5-FI-FA-MTX therapeutic used equals 55.0 mg/kg and is equivalent to a 5.0 mg/kg total cumulative dose of free methotrexate (FIG. 29). The therapeutic dose of the conjugate was compared with three cumulative doses of free methotrexate equivalent to 33.3, 21.7, and 5.0 mg/kg accumulated in 10 to 15 injections based on mouse survival. Saline and the conjugate without methotrexate (G5-FI-FA) were used as controls.
# [4] = system: low FAR-expressing KB cells; test: Cellular uptake/binding of dendrimers in low-FAR KB cells, flow cytometry; type: cell-based, human
# Protocol: as §1, §2, §3
# Time course and dose dependent inhibition of cell growth.
# KB cells [5] = test: Inhibition of cell growth by total cell protein; conditions: 150 nM FA with 150 nM MTX, 24 h, then 6 d fresh medium; total cell protein
# Protocol: Cell culture and treatment. KB cells were maintained in folate-free medium containing 10% serum (See, e.g., Quintana et al, Pharm. Res. 19, 1310 (2002)) to provide extracellular FA similar to that found in human serum. Cells were plated in 12-well plates for uptake studies, in 24-well plates for cell growth analysis, and in 96-well plates for XTT assay. Cells were rinsed with FA-free medium containing dialyzed serum and incubated at 37° C. with dendrimer-drug conjugates for the indicated time periods and concentrations. KB cells were also maintained in RPMI medium containing 2 μM FA to obtain cells which express low FAR.
# Evaluation of dendrimer cytotoxicity. Cell growth was determined by assay of the total protein in lysates of treated cells using a bicinchoninic acid reagent (PIERCE, and by XTT assay, using a kit from Roche.
# Time course and dose dependent inhibition of cell growth. Previous studies have shown that MTX-induced cytotoxicity is detectable in vitro only if the medium is completely deprived of FA (See, e.g., Sobrero & Bertino, Int. J. Cell Cloning 4, 51 (1986)). The effect of the trifunctional dendrimers on cell growth was tested in cells incubated in a FA-deficient medium. Cells were treated with 300 nM conjugates (equivalent of 1500 nM MTX) or 1500 nM free MTX for 1-4 days, and cell proliferation was determined by estimation of cellular protein content. Cells were treated for 2 days with different concentrations of the conjugates or free MTX (the conjugate concentration is given as MTX equivalents, with 5 MTX per dendrimer molecule). KB cells which express high and low FAR were incubated with 30 nM of the dendrimers for 1 hr at 37° C., rinsed, and the fluorescence of cells was determined by flow cytometric analysis (See. e.g., FIG. 21, left panel).
# KB cells were treated with 150 or 500 nM MTX in the presence or absence of equimolar concentrations of free FA for 24 h. […] The cells were rinsed to remove the drugs and incubated with fresh medium for an additional 6 d, and total cell protein was determined.
# [6] = 50 μM FA, 24 h, then 5 days drug-free, XTT
Molecule,"inhibition of cell growth, XTT (KB cells [2])",amount in feces [3],concentration in KB tumor [3],concentration in liver [3],"time of excretion, primarily through the kidney [3]",other results
G5-(Ac)82-(FITC)5 [G5-FITC],not growth-inhibitory,,,,,detection of dendrimer in KB cells ([1]; control dendrimer without FA): not detected
G5-(Ac)50-(Ac-3H)54-(FA)6 [G5-^3H-FA],,very low amounts,increases over the first 4 days,increases over the first 4 days,≤ 24 h,cumulative clearance compared with G5-3H [3]: lower
G5-(Ac)82-(FITC)5-(FA)5 [G5-FITC-FA],not growth-inhibitory,,,,,"effect on tumor growth (s.c. human KB xenografts): no therapeutic effect; effect of free FA on uptake, high-FAR expressing cells ([1]; 50 μM FA, dendrimer 30 nM): completely blocked; binding to low FAR-expressing KB cells relative to high FAR-expressing cells [4]: 30%; effect of free FA on uptake, low-FAR expressing cells ([4]; 50 μM FA, dendrimer 30 nM): completely blocked"
"Nc1nc2ncc(CNc3ccc(C(=O)N[C@@H](CCC(=O)O)C(=O)O)cc3)nc2c(=O)[nH]1 [FA, Folic Acid, reference compound]",,,,,,reversal of MTX-induced growth-arrest by FA (KB cells [5]): almost completely reversed; effect of excess free FA on growth inhibition by conjugate or free MTX (KB cells [2]; [6]): blocked growth inhibition; increase of cell growth above control cells (KB cells [2]; [6]): 20%
G5-(Ac)50-(Ac-3H)54 [G5-^3H],,very low amounts,decreased rapidly,decreased rapidly,≤ 24 h,
